ChEMBL document CHEMBL5338731, “Development of Neuropeptide Hemokinin-1 Analogues with Antimicrobial and Wound-Healing Activity” (J Med Chem, 2023)
The source made the active and inactive calls. No cut-off for these calls is given here.

Experiments:
[1] = Hemolytic activity in mouse erythrocytes assessed as haemoglobin release at 10 uM incubated for 1 hrs by microplate reader method; format: toxicity, cell-based, Erythrocyte; settings: read-out: Activity
[2] = species on record: Mus musculus; experiment: Wound healing activity in Kunming mouse full-thickness excisional wound model assessed as increase in wound closure at 1 10^-7M, TOP BID and measured upto 8 days by image analysis; format: functional, organism-based; settings: time <= 8.0 day
[3] = tested on: Cell membrane; experiment: Induction of cell membrane disruption in Staphylococcus aureus ATCC 25923 assessed as distinct wrinkling in cell morphology at 2 times MIC incubated for 2 hrs by SEM analysis; format: subcellular
[4] = tested on: Escherichia coli; experiment: Antimicrobial activity against Escherichia coli ATCC 25922 assessed as inhibition of bacterial growth incubated for 18 hrs by serial dilution method; format: functional
[5] = tested on: Escherichia coli; experiment: Antimicrobial activity against Escherichia coli ML-35 assessed as inhibition of bacterial growth incubated for 18 hrs by serial dilution method; format: functional
[6] = tested on: Pseudomonas aeruginosa; experiment: Antimicrobial activity against Pseudomonas aeruginosa ATCC 27853 assessed as inhibition of bacterial growth incubated for 18 hrs by serial dilution method; format: functional
[7] = tested on: Pseudomonas aeruginosa; experiment: Antimicrobial activity against Pseudomonas aeruginosa PAO1 assessed as inhibition of bacterial growth incubated for 18 hrs by serial dilution method; format: functional
[8] = tested on: Staphylococcus aureus; experiment: Antimicrobial activity against Staphylococcus aureus ATCC 25923 assessed as inhibition of bacterial growth incubated for 18 hrs by serial dilution method; format: functional
[9] = tested on: Staphylococcus aureus; experiment: Antimicrobial activity against Staphylococcus aureus ATCC 29213 assessed as inhibition of bacterial growth incubated for 18 hrs by serial dilution method; format: functional
[10] = tested on: Bacillus subtilis; experiment: Antimicrobial activity against Bacillus subtilis ATCC 23857 assessed as inhibition of bacterial growth incubated for 18 hrs by serial dilution method; format: functional
[11] = Hemolytic activity in mouse erythrocytes assessed as haemoglobin release at 400 uM incubated for 1 hrs by microplate reader method; format: toxicity, cell-based, Erythrocyte; settings: read-out: Activity
[12] = tested on: RAW264.7; experiment: Anti-inflammatory activity in LPS-stimulated mouse RAW264.7 cells assessed as inhibition of NO production at 16 uM incubated for 24 hrs by Griess reagent based assay; format: functional, cell-based
[13] = Cytotoxicity against mouse RAW264.7 cells assessed as cell survival rate at 16 uM incubated for 24 hrs by MTT assay; format: toxicity, cell-based; settings: read-out: Survival
[14] = tested on: RAW264.7; experiment: Anti-inflammatory activity against LPS-stimulated mouse RAW264.7 cells assessed as reduction in TNF-alpha mRNA expression level at 1 to 16 uM incubated for 4 hrs by RT-qPCR analysis; format: functional, cell-based; settings: dose 1-16 µM
[15] = tested on: RAW264.7; experiment: Anti-inflammatory activity against LPS-stimulated mouse RAW264.7 cells assessed as reduction in IL-1beta mRNA expression level at 1 to 16 uM incubated for 4 hrs by RT-qPCR analysis; format: functional, cell-based; settings: dose 1-16 µM
[16] = tested on: RAW264.7; experiment: Anti-inflammatory activity against LPS-stimulated mouse RAW264.7 cells assessed as reduction in IL-6 mRNA expression level at 1 to 16 uM incubated for 4 hrs by RT-qPCR analysis; format: functional, cell-based; settings: dose 1-16 µM
[17] = tested on: Lipopolysaccharide (LPS); experiment: Binding affinity to Escherichia coli O111:B4 LPS assessed as dissociation constant by ITC assay
[18] = species on record: Mus musculus; experiment: Wound healing activity in Kunming mouse full-thickness excisional wound model assessed as increase in wound closure at 0.1 to 10 uM, TOP BID and measured upto 8 days by image analysis; format: functional, organism-based; settings: dose 0.1-10 µM, time <= 8.0 day
[19] = species on record: Mus musculus; experiment: Wound healing activity in Kunming mouse full-thickness excisional wound model with splints assessed as increase in wound healing rate at 1 10^-7M, TOP BID and measured upto 8 days by image analysis; format: functional, organism-based; settings: time <= 8.0 day
[20] = tested on: NIH3T3; experiment: Induction of cell proliferation in mouse NIH3T3 cells assessed as increase in cell viability at 0.1 to 1000 nM incubated for 48 hrs by MTT assay; format: functional, cell-based; settings: dose 0.1-1000 nM
[21] = tested on: NIH3T3; experiment: Induction of cell migration in mouse NIH3T3 cells assessed as […] at 0.1 to 1000 nM incubated for 48 hrs by phase-contrast microscopy based scratch wound healing assay; format: functional; settings: dose 0.1-1000 nM
[22] = tested on: HEK293; experiment: Induction of cell proliferation in human HEK293 cells expressing NK1R assessed as increase in cell viability at 0.1 to 1000 nM incubated for 48 hrs by MTT assay; format: functional, cell-based; settings: dose 0.1-1000 nM
[23] = tested on: HEK293; experiment: Induction of cell proliferation in human HEK293 cells assessed as increase in cell viability at 0.1 to 1000 nM incubated for 48 hrs by MTT assay; format: functional, cell-based; settings: dose 0.1-1000 nM
[24] = species on record: Mus musculus; experiment: Antimicrobial activity in Staphylococcus aureus ATCC 25923 infected Kunming mouse excisional wound model assessed as decrease in bacterial growth at 1 10^-4M, TOP BID and measured upto 8 days by image analysis; format: functional, organism-based; settings: time <= 8.0 day
[25] = species on record: Mus musculus; experiment: Wound healing activity in Staphylococcus aureus ATCC 25923 infected Kunming mouse excisional wound model assessed as increase in wound repair at 1 10^-4M, TOP BID and measured upto 8 days by image analysis; format: functional, organism-based; settings: time <= 8.0 day
[26] = species on record: Mus musculus; experiment: Wound healing activity in STZ-induced Kunming mouse diabetic wound model assessed as increase in wound repair at 1 10^-7M, TOP BID and measured upto 8 days by image analysis; format: functional, organism-based; settings: time <= 8.0 day
[27] = tested on: Escherichia coli; experiment: Bactericidal activity against Escherichia coli ATCC 25922 assessed as reduction in colony forming unit at 1 times MIC and measured after 120 mins by time-kill kinetics assay; format: functional, organism-based
[28] = tested on: Escherichia coli; experiment: Bactericidal activity against Escherichia coli ATCC 25922 assessed as reduction in colony forming unit at 2 times MIC and measured after 90 mins by time-kill kinetics assay; format: functional, organism-based
[29] = tested on: Escherichia coli; experiment: Bactericidal activity against Escherichia coli ATCC 25922 assessed as reduction in colony forming unit at 4 times MIC and measured after 60 mins by time-kill kinetics assay; format: functional, organism-based
[30] = tested on: Staphylococcus aureus; experiment: Bactericidal activity against Staphylococcus aureus ATCC 25923 assessed as reduction in colony forming unit at 1 to 4 times MIC and measured after 120 mins by time-kill kinetics assay; format: functional, organism-based
[31] = tested on: Staphylococcus aureus; experiment: Bactericidal activity against Staphylococcus aureus ATCC 25923 assessed as reduction in colony forming unit at 2 times MIC and measured after 120 mins by time-kill kinetics assay; format: functional, organism-based
[32] = tested on: Cell membrane; experiment: Induction of outer cell membrane permeability in Escherichia coli ATCC 25922 assessed as increase fluoresence intensity at 1 to 8 times of MIC and measured every mins for 15 mins by NPN uptake assay; format: subcellular
[33] = tested on: Cell membrane; experiment: Induction of inner cell membrane permeabilization in Escherichia coli ML-35 assessed as increase in absorbance at 1 to 8 times of MIC and measured every 5mins for 90 mins by ONPG beta-galactosidase based assay; format: subcellular
[34] = tested on: Cell membrane; experiment: Induction of cell membrane disruption in Escherichia coli ATCC 25922 assessed as PI uptake at 2 times MIC incubated for 1 hrs by PI staining based confocal laser scanning microscopy; format: subcellular
[35] = tested on: Cell membrane; experiment: Induction of cell membrane disruption in Staphylococcus aureus ATCC 25923 assessed as PI uptake at 2 times MIC incubated for 1 hrs by PI staining based confocal laser scanning microscopy; format: subcellular
[36] = tested on: Cell membrane; experiment: Induction of cell membrane disruption in Escherichia coli ATCC 25922 assessed as distinct wrinkling in cell morphology at 2 times MIC incubated for 2 hrs by SEM analysis; format: subcellular
[37] = tested on: Cell membrane; experiment: Induction of cell membrane disruption in Escherichia coli ATCC 25922 assessed as membrane blebbing at 2 times MIC incubated for 2 hrs by SEM analysis; format: subcellular
[38] = tested on: Cell membrane; experiment: Induction of cell membrane disruption in Staphylococcus aureus ATCC 25923 assessed as membrane blebbing at 2 times MIC incubated for 2 hrs by SEM analysis; format: subcellular
[39] = tested on: Cell membrane; experiment: Induction of cell membrane disruption in Escherichia coli ATCC 25922 assessed as separation between outer membrane and cytoplasmic membrane at 2 times MIC incubated for 2 hrs by TEM analysis; format: subcellular
[40] = tested on: Cell membrane; experiment: Induction of cell membrane disruption in Escherichia coli ATCC 25922 assessed as sparse cytoplasmic distribution at 2 times MIC incubated for 2 hrs by TEM analysis; format: subcellular
[41] = tested on: Cell membrane; experiment: Induction of cell membrane disruption in Escherichia coli ATCC 25922 assessed as coagulation of cytoplasmic elements at 2 times MIC incubated for 2 hrs by TEM analysis; format: subcellular
[42] = tested on: Cell membrane; experiment: Induction of cell membrane disruption in Staphylococcus aureus ATCC 25923 assessed as separation between […] at 2 times MIC incubated for 2 hrs by TEM analysis; format: subcellular
[43] = tested on: Cell membrane; experiment: Induction of cell membrane disruption in Staphylococcus aureus ATCC 25923 assessed as sparse cytoplasmic distribution at 2 times MIC incubated for 2 hrs by TEM analysis; format: subcellular
[44] = tested on: Cell membrane; experiment: Induction of cell membrane disruption in Staphylococcus aureus ATCC 25923 assessed as coagulation of cytoplasmic elements at 2 times MIC incubated for 2 hrs by TEM analysis; format: subcellular

Work on CC[C@H](C)[C@H](NC(=O)CN)C(=O)NCC(=O)N[C@@H](C)C(=O)N[C@H](C(=O)N[C@@H](CC(C)C)C(=O)N[C@@H](CCCCN)C(=O)N[C@H](C(=O)N[C@@H](CC(C)C)C(=O)N[C@H](C(=O)N[C@H](C(=O)NCC(=O)N[C@@H](CC(C)C)C(=O)N1CCC[C@H]1C(=O)N[C@@H](C)C(=O)N[C@@H](CC(C)C)C(=O)N[C@H](C(=O)N[C@@H](CO)C(=O)N[C@@H](Cc1c[nH]c2ccccc12)C(=O)N[C@H](C(=O)N[C@@H](CCCCN)C(=O)N[C@@H](CCCNC(=N)N)C(=O)N[C@@H](CCCCN)C(=O)N[C@@H](CCCNC(=N)N)C(=O)N[C@@H](CCC(N)=O)C(=O)N[C@@H](CCC(N)=O)C(N)=O)[C@@H](C)CC)[C@@H](C)CC)[C@@H](C)O)[C@@H](C)O)C(C)C)C(C)C [MELITTIN] yielded a hemolysis at 1 h, 10 µM [1] of 58.8%.

For H-LKKWLKKWTLKASQFFGLM-NH2, the Activity [2] was “Active”, the Activity [3] was “Active” and the MIC [4] was 2 µM. It also gave an MIC [5] of 2 µM, an MIC [6] of 2 µM and an MIC [7] of 2 µM. The MIC [8] was 2 µM, the MIC [9] was 4 µM and the MIC [10] was 2 µM. The hemolysis at 1 h, 400 µM [11] was 19.5%, the inhibition [12] was “Active” and the viability at 24 h, 16 µM [13] was > 90%. The Activity [14] was “Dose-Dependent Effect”, the Activity [15] was “Dose-Dependent Effect” and the Activity [16] was “Dose-Dependent Effect”. The Kd [17] was 13.4 µM, the Activity [18] was “inactive” and the Activity [19] was “Active”. For the same compound, the Activity [20] was “Active”, the Activity [21] was “Active” and the Activity [22] was “Active”. For the same compound, the Activity [23] was “inactive”, the Activity [24] was “Active” and the Activity [25] was “inactive”. For the same compound, the Activity [26] was “Active”, the Activity [27] was “Active” and the Activity [28] was “Active”. For the same compound, the Activity [29] was “Active”, the Activity [30] was “Active” and the Activity [31] was “Active”. For the same compound, the Activity [32] was “Dose-Dependent Effect”, the Activity [33] was “Active” and the Activity [34] was “Active”. The Activity [35] was “Active”, the Activity [36] was “Active” and the Activity [37] was “Active”. The Activity [38] was “Active”, the Activity [39] was “Active” and the Activity [40] was “Active”. The Activity [41] was “Active”, the Activity [42] was “Active” and the Activity [43] was “Active”. For the same compound, the Activity [44] was “Active”.
